Patent US8637510B2, “Morpholinothiazoles as alpha 7 positive allosteric modulators” (Janssen Pharmaceutica NV, priority 2009, dated 2014)

Tests used:
human alpha 7-wt nAChR = biological target: T1, human alpha 7-wt nAChR (Homo sapiens, UniProt P36544); assay: Ca2+ flux imaging (FDSS) (Protocol B); format: cell-based; settings: for Emax: efficacy of 100 μM choline defined as 100% in the absence of a PAM, read-out: a7-PAM-G_[33]_Eff_Curve_FI % Efficacy; for EC50: potentiation of 100 μM choline, compounds 0.01 μM to 30 μM, read-out: a7-PAM-G_[33]_pEC50 pEC50 (converted)
T1 construct: expressed in transfected cells
In short: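 Fluo-4AM-loaded cells expressing human α7-wt nAChR, in HBSS with 10 mM HEPES, 5 mM CaCl2, 0.1% BSA, received compound (0.01–30 μM), typically 10 min before 100 μM choline, with calcium flux read in real time. Potentiation is relative to choline alone (100%); EC50 from sigmoidal curves.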

T1 sequence (P36544 23-502): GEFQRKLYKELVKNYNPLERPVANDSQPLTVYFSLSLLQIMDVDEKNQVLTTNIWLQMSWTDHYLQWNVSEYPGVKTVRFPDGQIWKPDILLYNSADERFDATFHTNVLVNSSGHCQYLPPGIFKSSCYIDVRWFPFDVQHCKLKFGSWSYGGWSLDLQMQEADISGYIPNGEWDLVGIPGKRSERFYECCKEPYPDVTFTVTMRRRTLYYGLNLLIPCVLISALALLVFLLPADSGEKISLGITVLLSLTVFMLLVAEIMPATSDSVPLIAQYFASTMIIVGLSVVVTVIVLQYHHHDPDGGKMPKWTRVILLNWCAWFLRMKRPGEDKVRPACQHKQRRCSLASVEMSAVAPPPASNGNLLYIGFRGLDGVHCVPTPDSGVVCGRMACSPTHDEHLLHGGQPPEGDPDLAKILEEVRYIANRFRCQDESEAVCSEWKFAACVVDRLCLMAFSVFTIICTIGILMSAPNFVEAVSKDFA

| Compound | melting point | Emax (human alpha 7-wt nAChR) | EC50 (human alpha 7-wt nAChR) |
| --- | --- | --- | --- |
| CCCC(=O)NCc1nc(N2CCOCC2)sc1-c1cc(C)nc(C)c1 [Compound 67, N-[[5-(2,6-dimethyl-4-pyridinyl)-2-(4-morpholinyl)-4-thiazolyl]methyl]-butanamide] | 178 °C | 959% | 5370 nM |
| Cc1cc(-c2sc(N3CCOCC3)nc2CNC(=O)c2ccc(F)cc2C)cc(C)n1 [Compound 80, N-[[5-(2,6-dimethyl-4-pyridinyl)-2-(4-morpholinyl)-4-thiazolyl]methyl]-4-fluoro-2-methyl-benzamide] | 221 °C | 902% | 661 nM |
| Cc1cc(-c2sc(N3C[C@@H](C)O[C@@H](C)C3)nc2CNC(=O)c2cccc(F)c2)ccn1 [Compound 93, N-[[2-[(2R,6S)-2,6-dimethyl-4-morpholinyl]-5-(2-methyl-4-pyridinyl)-4-thiazolyl]methyl]-3-fluoro-benzamide] | 153 °C | 477% | 479 nM |
| Cc1cc(-c2sc(N3C[C@@H](C)O[C@@H](C)C3)nc2CNC(=O)c2ccc(F)cc2)ccn1 [Compound 94, N-[[2-[(2R,6S)-2,6-dimethyl-4-morpholinyl]-5-(2-methyl-4-pyridinyl)-4-thiazolyl]methyl]-4-fluoro-benzamide] | 225 °C | 420% | 479 nM |
| Cc1cc(-c2sc(N3C[C@@H](C)O[C@@H](C)C3)nc2CNC(=O)C2CCCC2)c(C)cn1 [Compound 96, N-[[2-[(2R,6S)-2,6-dimethyl-4-morpholinyl]-5-(2,5-dimethyl-4-pyridinyl)-4-thiazolyl]methyl]-cyclopentanecarboxamide] | 173 °C | 420% | 676 nM |
| Cc1cc(-c2sc(N3C[C@@H](C)O[C@@H](C)C3)nc2CNC(=O)CC2CC2)c(C)cn1 [Compound 97, N-[[2-[(2R,6S)-2,6-dimethyl-4-morpholinyl]-5-(2,5-dimethyl-4-pyridinyl)-4-thiazolyl]methyl]-cyclopropaneacetamide] | 138 °C | 424% | 3020 nM |
| Cc1cc(-c2sc(N3C[C@@H](C)O[C@@H](C)C3)nc2CNC(=O)c2cc(C)on2)c(C)cn1 [Compound 98, N-[[2-[(2R,6S)-2,6-dimethyl-4-morpholinyl]-5-(2,5-dimethyl-4-pyridinyl)-4-thiazolyl]methyl]-5-methyl-3-isoxazolecarboxamide] | 155 °C |  | 4070 nM |
| C[C@@H]1CN(c2nc(CNC(=O)CC3CC3)c(-c3ccncc3)s2)C[C@H](C)O1 [Compound 99, N-[[2-[(2R,6S)-2,6-dimethyl-4-morpholinyl]-5-(4-pyridinyl)-4-thiazolyl]methyl]-cyclopropaneacetamide] | 178 °C |  | 7410 nM |
| Cc1cc(C(=O)NCc2nc(N3C[C@@H](C)O[C@@H](C)C3)sc2-c2ccncc2)no1 [Compound 100, N-[[2-[(2R,6S)-2,6-dimethyl-4-morpholinyl]-5-(4-pyridinyl)-4-thiazolyl]methyl]-5-methyl-3-isoxazolecarboxamide] | 182 °C |  | 1820 nM |
| Cc1cc(F)ccc1C(=O)NCc1nc(N2C[C@@H](C)O[C@@H](C)C2)sc1-c1ccncc1 [Compound 102, N-[[2-[(2R,6S)-2,6-dimethyl-4-morpholinyl]-5-(4-pyridinyl)-4-thiazolyl]methyl]-4-fluoro-2-methyl-benzamide] | 161 °C | 982% | 347 nM |
| CC(C)CC(=O)NCc1nc(N2C[C@@H](C)O[C@@H](C)C2)sc1-c1ccncc1 [Compound 103, N-[[2-[(2R,6S)-2,6-dimethyl-4-morpholinyl]-5-(4-pyridinyl)-4-thiazolyl]methyl]-3-methyl-butanamide] | 173 °C |  | 1290 nM |
| Cc1cc(C(=O)NCc2nc(N3CCOCC3)sc2-c2ccncc2)no1 [Compound 111, 5-methyl-N-[[2-(4-morpholinyl)-5-(4-pyridinyl)-4-thiazolyl]methyl]-3-isoxazolecarboxamide] | 191 °C | 812% |  |
| O=C(CC1CC1)NCc1nc(N2CCOCC2)sc1-c1ccncc1 [Compound 112, N-[[2-(4-morpholinyl)-5-(4-pyridinyl)-4-thiazolyl]methyl]-cyclopropaneacetamide] | 135 °C | 525% |  |
| Cc1cc(F)ccc1C(=O)NCc1nc(N2CCOCC2)sc1-c1ccncc1 [Compound 113, 4-fluoro-2-methyl-N-[[2-(4-morpholinyl)-5-(4-pyridinyl)-4-thiazolyl]methyl]-benzamide] | 191 °C | 730% | 2750 nM |
| Cc1nocc1C(=O)NCc1nc(N2CCOCC2)sc1-c1ccncc1 [Compound 114, 3-methyl-N-[[2-(4-morpholinyl)-5-(4-pyridinyl)-4-thiazolyl]methyl]-4-isoxazolecarboxamide] | 234 °C | 313% |  |
| O=C(NCc1nc(N2CCOCC2)sc1-c1ccncc1)C1CC1 [Compound 116, N-[[2-(4-morpholinyl)-5-(4-pyridinyl)-4-thiazolyl]methyl]-cyclopropanecarboxamide] | 189 °C | 259% |  |
| Cc1ccc(-c2sc(N3C[C@@H](C)O[C@@H](C)C3)nc2CNC(=O)c2conc2C)cn1 [Compound 117, N-[[2-[(2R,6S)-2,6-dimethyl-4-morpholinyl]-5-(6-methyl-3-pyridinyl)-4-thiazolyl]methyl]-3-methyl-4-isoxazolecarboxamide] | 129 °C | 665% |  |

Results, then the compound that gave them:

| melting point | Emax (human alpha 7-wt nAChR) | EC50 (human alpha 7-wt nAChR) | Compound |
| --- | --- | --- | --- |
| 139 °C | 302% | 4270 nM | Cc1ccc(-c2sc(N3C[C@@H](C)O[C@@H](C)C3)nc2CNC(=O)CC2CC2)cn1 [Compound 119, N-[[2-[(2R,6S)-2,6-dimethyl-4-morpholinyl]-5-(6-methyl-3-pyridinyl)-4-thiazolyl]methyl]-cyclopropaneacetamide] |
| 139 °C | 567% |  | Cc1ccc(-c2sc(N3C[C@@H](C)O[C@@H](C)C3)nc2CNC(=O)C2CCC2)cn1 [Compound 120, N-[[2-[(2R,6S)-2,6-dimethyl-4-morpholinyl]-5-(6-methyl-3-pyridinyl)-4-thiazolyl]methyl]-cyclobutanecarboxamide] |
| 152 °C | 356% | 2040 nM | Cc1ccc(-c2sc(N3C[C@@H](C)O[C@@H](C)C3)nc2CNC(=O)c2ccccc2Cl)cn1 [Compound 121, 2-chloro-N-[[2-[(2R,6S)-2,6-dimethyl-4-morpholinyl]-5-(6-methyl-3-pyridinyl)-4-thiazolyl]methyl]-benzamide] |
| 167 °C | 473% | 1000 nM | Cc1ccc(-c2sc(N3C[C@@H](C)O[C@@H](C)C3)nc2CNC(=O)c2cccc(Cl)c2)cn1 [Compound 122, 3-chloro-N-[[2-[(2R,6S)-2,6-dimethyl-4-morpholinyl]-5-(6-methyl-3-pyridinyl)-4-thiazolyl]methyl]-benzamide] |
| 208 °C | 636% | 389 nM | Cc1ccc(-c2sc(N3C[C@@H](C)O[C@@H](C)C3)nc2CNC(=O)c2ccc(Cl)cc2)cn1 [Compound 123, 4-chloro-N-[[2-[(2R,6S)-2,6-dimethyl-4-morpholinyl]-5-(6-methyl-3-pyridinyl)-4-thiazolyl]methyl]-benzamide] |
| 147 °C | 428% | 851 nM | Cc1ccc(-c2sc(N3C[C@@H](C)O[C@@H](C)C3)nc2CNC(=O)c2cccc(F)c2)cn1 [Compound 125, N-[[2-[(2R,6S)-2,6-dimethyl-4-morpholinyl]-5-(6-methyl-3-pyridinyl)-4-thiazolyl]methyl]-3-fluoro-benzamide] |
| 195 °C | 655% | 1660 nM | Cc1ccc(-c2sc(N3C[C@@H](C)O[C@@H](C)C3)nc2CNC(=O)c2ccc(F)cc2)cn1 [Compound 126, N-[[2-[(2R,6S)-2,6-dimethyl-4-morpholinyl]-5-(6-methyl-3-pyridinyl)-4-thiazolyl]methyl]-4-fluoro-benzamide] |
| 131 °C |  | 977 nM | Cc1cc(-c2sc(N3C[C@@H](C)O[C@@H](C)C3)nc2CNC(=O)c2cc(C)oc2C)cc(C)n1 [Compound 146, N-[[2-[(2R,6S)-2,6-dimethyl-4-morpholinyl]-5-(2,6-dimethyl-4-pyridinyl)-4-thiazolyl]methyl]-2,5-dimethyl-3-furancarboxamide] |
| 149 °C |  | 912 nM | Cc1cc(-c2sc(N3C[C@@H](C)O[C@@H](C)C3)nc2CNC(=O)c2occc2C)cc(C)n1 [Compound 147, N-[[2-[(2R,6S)-2,6-dimethyl-4-morpholinyl]-5-(2,6-dimethyl-4-pyridinyl)-4-thiazolyl]methyl]-3-methyl-2-furancarboxamide] |
| 164 °C |  | 1620 nM | Cc1cc(-c2sc(N3C[C@@H](C)O[C@@H](C)C3)nc2CNC(=O)c2ccno2)cc(C)n1 [Compound 149, N-[[2-[(2R,6S)-2,6-dimethyl-4-morpholinyl]-5-(2,6-dimethyl-4-pyridinyl)-4-thiazolyl]methyl]-5-isoxazolecarboxamide] |
| 184 °C | 894% | 427 nM | Cc1cc(-c2sc(N3C[C@@H](C)O[C@@H](C)C3)nc2CNC(=O)c2sccc2C)cc(C)n1 [Compound 150, N-[[2-[(2R,6S)-2,6-dimethyl-4-morpholinyl]-5-(2,6-dimethyl-4-pyridinyl)-4-thiazolyl]methyl]-3-methyl-2-thiophenecarboxamide] |
